Measured values taken from the NIST ThermoML archive (doi:10.1016/j.jct.2015.05.024).
Numbers after ± are expanded uncertainties.

Experiment: xn = mol fraction of the nth substance listed
Conditions: 100 kPa, Liquid; for mass density: Vibrating tube method; for speed of sound: Frequency=5 MHz, Pulse-echo method

## OCCOCCOCCO [triethylene glycol] + O
313.15 K, x1 = 0.8975
  mass density: 1107.54 ± 0.28 kg/m3
313.15 K, x1 = 0.9203
  mass density: 1107.65 ± 0.29 kg/m3
313.15 K, x1 = 0.9514
  mass density: 1107.8 ± 0.3 kg/m3
313.15 K, x1 = 0.9692
  mass density: 1107.89 ± 0.3 kg/m3
313.15 K, x1 = 1
  mass density: 1108.03 ± 0.32 kg/m3
318.15 K, x1 = 0.000584
  speed of sound: 1538.5 ± 1.2 m/s
318.15 K, x1 = 0.002006
  speed of sound: 1542.9 ± 1.2 m/s
318.15 K, x1 = 0.004375
  speed of sound: 1550 ± 1.2 m/s
318.15 K, x1 = 0.01026
  speed of sound: 1566.6 ± 1.1 m/s
318.15 K, x1 = 0.01483
  speed of sound: 1578.5 ± 1.1 m/s
318.15 K, x1 = 0.0207
  speed of sound: 1592.6 ± 1.1 m/s
318.15 K, x1 = 0.02817
  speed of sound: 1608.6 ± 1.1 m/s
318.15 K, x1 = 0.0344
  speed of sound: 1620.5 ± 1.1 m/s
318.15 K, x1 = 0.04361
  speed of sound: 1635.9 ± 1.1 m/s
318.15 K, x1 = 0.05146
  speed of sound: 1647.1 ± 1.1 m/s
318.15 K, x1 = 0.05903
  speed of sound: 1656.4 ± 1.1 m/s
318.15 K, x1 = 0.06571
  speed of sound: 1663.4 ± 1.1 m/s
318.15 K, x1 = 0.07299
  speed of sound: 1670 ± 1.1 m/s
318.15 K, x1 = 0.08294
  speed of sound: 1677.4 ± 1.1 m/s
318.15 K, x1 = 0.09126
  speed of sound: 1682.2 ± 1.1 m/s
318.15 K, x1 = 0.09661
  speed of sound: 1684.8 ± 1.1 m/s
318.15 K, x1 = 0.1018
  speed of sound: 1686.8 ± 1.1 m/s
318.15 K, x1 = 0.1056
  speed of sound: 1688.1 ± 1.1 m/s
318.15 K, x1 = 0.1135
  speed of sound: 1690.2 ± 1.1 m/s
318.15 K, x1 = 0.1255
  speed of sound: 1692.2 ± 1.1 m/s
318.15 K, x1 = 0.1394
  speed of sound: 1692.8 ± 1.1 m/s
318.15 K, x1 = 0.1396
  speed of sound: 1692.8 ± 1.1 m/s
318.15 K, x1 = 0.1432
  speed of sound: 1692.7 ± 1.1 m/s
318.15 K, x1 = 0.1521
  speed of sound: 1692.1 ± 1.1 m/s
318.15 K, x1 = 0.1731
  speed of sound: 1689 ± 1.1 m/s
318.15 K, x1 = 0.1931
  speed of sound: 1684.5 ± 1.1 m/s
318.15 K, x1 = 0.2076
  speed of sound: 1680.7 ± 1.1 m/s
318.15 K, x1 = 0.2511
  speed of sound: 1667.7 ± 1.1 m/s
318.15 K, x1 = 0.3044
  speed of sound: 1651.8 ± 1.1 m/s
318.15 K, x1 = 0.3572
  speed of sound: 1637.7 ± 1.1 m/s
318.15 K, x1 = 0.4142
  speed of sound: 1624.4 ± 1.1 m/s
318.15 K, x1 = 0.4989
  speed of sound: 1607.6 ± 1.2 m/s
318.15 K, x1 = 0.6427
  speed of sound: 1585.5 ± 1.2 m/s
318.15 K, x1 = 0.7971
  speed of sound: 1571.3 ± 1.3 m/s
318.15 K, x1 = 0.8865
  speed of sound: 1565.1 ± 1.3 m/s
318.15 K, x1 = 0.9641
  speed of sound: 1559.6 ± 1.4 m/s
318.15 K, x1 = 1
  speed of sound: 1554.7 ± 1.4 m/s
  mass density: 1104.13 ± 0.31 kg/m3
318.15 K, x1 = 0.0107
  mass density: 1001.51 ± 0.23 kg/m3
318.15 K, x1 = 0.02047
  mass density: 1010.75 ± 0.2 kg/m3
318.15 K, x1 = 0.03972
  mass density: 1026.32 ± 0.19 kg/m3
318.15 K, x1 = 0.04979
  mass density: 1033.27 ± 0.17 kg/m3
318.15 K, x1 = 0.06996
  mass density: 1045.13 ± 0.15 kg/m3
318.15 K, x1 = 0.09424
  mass density: 1056.41 ± 0.14 kg/m3
318.15 K, x1 = 0.1481
  mass density: 1073.27 ± 0.14 kg/m3
318.15 K, x1 = 0.2006
  mass density: 1082.92 ± 0.14 kg/m3
318.15 K, x1 = 0.2502
  mass density: 1088.64 ± 0.14 kg/m3
318.15 K, x1 = 0.2988
  mass density: 1092.38 ± 0.14 kg/m3
318.15 K, x1 = 0.3492
  mass density: 1095.09 ± 0.15 kg/m3
318.15 K, x1 = 0.3925
  mass density: 1096.8 ± 0.16 kg/m3
318.15 K, x1 = 0.4502
  mass density: 1098.53 ± 0.17 kg/m3
318.15 K, x1 = 0.4877
  mass density: 1099.4 ± 0.17 kg/m3
318.15 K, x1 = 0.5004
  mass density: 1099.66 ± 0.17 kg/m3
318.15 K, x1 = 0.5739
  mass density: 1100.92 ± 0.19 kg/m3
318.15 K, x1 = 0.58
  mass density: 1101 ± 0.19 kg/m3
318.15 K, x1 = 0.6465
  mass density: 1101.82 ± 0.2 kg/m3
318.15 K, x1 = 0.651
  mass density: 1101.87 ± 0.2 kg/m3
318.15 K, x1 = 0.7008
  mass density: 1102.35 ± 0.22 kg/m3
318.15 K, x1 = 0.7471
  mass density: 1102.73 ± 0.23 kg/m3
318.15 K, x1 = 0.7677
  mass density: 1102.88 ± 0.23 kg/m3
318.15 K, x1 = 0.82
  mass density: 1103.22 ± 0.25 kg/m3
318.15 K, x1 = 0.8623
  mass density: 1103.46 ± 0.26 kg/m3
318.15 K, x1 = 0.8792
  mass density: 1103.55 ± 0.27 kg/m3
318.15 K, x1 = 0.8975
  mass density: 1103.64 ± 0.27 kg/m3
318.15 K, x1 = 0.9203
  mass density: 1103.76 ± 0.28 kg/m3
318.15 K, x1 = 0.9514
  mass density: 1103.9 ± 0.29 kg/m3
318.15 K, x1 = 0.9692
  mass density: 1103.99 ± 0.3 kg/m3
323.15 K, x1 = 0.0107
  mass density: 999.177 ± 0.23 kg/m3
323.15 K, x1 = 0.02047
  mass density: 1008.26 ± 0.2 kg/m3
323.15 K, x1 = 0.03972
  mass density: 1023.56 ± 0.19 kg/m3
323.15 K, x1 = 0.04979
  mass density: 1030.37 ± 0.17 kg/m3
323.15 K, x1 = 0.06996
  mass density: 1041.99 ± 0.15 kg/m3
323.15 K, x1 = 0.09424
  mass density: 1053.04 ± 0.14 kg/m3
323.15 K, x1 = 0.1481
  mass density: 1069.57 ± 0.13 kg/m3
323.15 K, x1 = 0.2006
  mass density: 1079.07 ± 0.14 kg/m3
323.15 K, x1 = 0.2502
  mass density: 1084.73 ± 0.14 kg/m3
